The values that follow come from paper PMC8564633, “SMAC/Diablo controls proliferation of cancer cells by regulating phosphatidylethanolamine synthesis” (Molecular Oncology, 2021).

Non-standard residues stand in square brackets, D forms with d. No end group written: not given here. Dmt = Cc1cc(O)cc(C)c1C[C@H](N)C(=O)O; Orn = NCCC[C@H](N)C(=O)O

Data set [1] has as its target T1, purified PSD (Homo sapiens, UniProt Q9UG56).
T1 construct: Purified recombinant protein (full length) of human phosphatidylserine decarboxylase (PSD); His tag (N); purchased Acris-OriGene; host or cells: E. coli
T1 sequence (Q9UG56 53-409): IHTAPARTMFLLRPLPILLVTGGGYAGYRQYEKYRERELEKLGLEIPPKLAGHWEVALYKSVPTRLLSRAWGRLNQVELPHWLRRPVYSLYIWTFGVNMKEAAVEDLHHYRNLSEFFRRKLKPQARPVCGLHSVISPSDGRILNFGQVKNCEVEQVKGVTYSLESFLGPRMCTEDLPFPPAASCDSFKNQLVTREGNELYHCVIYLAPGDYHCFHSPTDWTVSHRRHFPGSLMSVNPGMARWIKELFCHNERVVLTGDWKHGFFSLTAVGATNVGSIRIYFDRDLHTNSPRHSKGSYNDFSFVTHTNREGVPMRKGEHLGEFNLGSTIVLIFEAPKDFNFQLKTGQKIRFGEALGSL
In words: MST, labelled PSD with synthetic peptides. As to conditions: labelled PSD 0.25 µM, peptide 1–10 µM, 30 min, 37 °C, n = 3, read-out: Kd, peptide binding to purified PSD.

Data set [2] has as its system purified SMAC. In words: Glass‐bound peptide array blotted with SMAC with or without PSD. The class given is binding, human. As to conditions: SMAC preincubated with purified PSD, anti‐SMAC antibodies. On the procedure: Customized 768‐peptide sequences derived from 11 SMAC‐interacting proteins produced by INTAVIS Peptide Services (GmbH & Co. KG, Tübingen, Germany) were arrayed on a glass slide. Peptide arrays were blotted with SMAC, PSD or peptides interacting with PSD using anti‐SMAC or anti‐PSD antibodies. The interaction of purified SMAC or PSD with glass‐bound peptide arrays was assessed by slide washing (three times, 10 min each) with Tris‐buffered saline (150 mM NaCl, 50 mM Tris/HCl, pH 7.4), followed by overnight incubation with blocking buffer (Tris‐buffered saline containing low‐fat dry milk, 2.5%, w/v). The slides were then incubated for 4 h or overnight with purified SMAC (0.8 µM) with and without preincubation with PSD (0.3 µM). Similarly, slides were incubated with PSD (0.15 µM) with or without preincubation with the indicated peptide (20 μM) in blocking buffer at room temperature. After extensive slide washing with Tris‐buffered saline containing 0.05% Tween‐20, SMAC or PSD binding was detected using anti‐SMAC or anti‐PSD antibodies and HRP‐conjugated anti‐rabbit or anti‐mouse IgG as a secondary antibody. The blots were developed using EZ‐ECL (Biological Industries), according to the manufacturer’s instructions.
Fig. 6 PSD‐ and SMAC‐interacting partners. (A) Schematic presentation of peptide array and detection of their interaction with SMAC. (B) Glass‐bound peptide array consisting of overlapping peptides derived from 15 SMAC‐interacting proteins were incubated overnight with purified SMAC (0.8 µM) and then blotted with anti‐SMAC antibodies (1 : 1000), followed by incubation with HRP‐conjugated anti‐mouse IgG and detection using a chemiluminescence kit. Dark spots represent binding of SMAC to peptides derived from SMAC‐interacting proteins. (C) SMAC (0.3 µM) was incubated with purified PSD (0.4 µM) and blotted as in (B). The peptide spots where PSD prevented interaction with SMAC (Table S1) are circled. (D) Schematic presentation of peptide array and detection of their interaction with PSD. […]

The subject of data set [3] is different cell lines. Particulars: ref [35], cited from earlier work. An excerpt: To target the peptide to the nucleus (nuCPP), the peptides were fused to the tetrapeptide RrRK (r = D‐arginine), shown to primarily target the nucleus of HeLa cells.
Data set [4] has as its target T2, Purified recombinant protein (full length) of human phosphatidylserine decarboxylase (PSD) (human, UniProt Q9UG56 53-409, fluorescently labelled (in the MST with the peptides 2F3 and 1C11 only)).
T2 construct: phosphatidylserine decarboxylase, human, full length, recombinant; also called PISD; purified PSD; source: bought: Acris‐OriGene, expressed in E. coli, purified; not shown: His tag, N-terminal, kept
T2 sequence (looked up): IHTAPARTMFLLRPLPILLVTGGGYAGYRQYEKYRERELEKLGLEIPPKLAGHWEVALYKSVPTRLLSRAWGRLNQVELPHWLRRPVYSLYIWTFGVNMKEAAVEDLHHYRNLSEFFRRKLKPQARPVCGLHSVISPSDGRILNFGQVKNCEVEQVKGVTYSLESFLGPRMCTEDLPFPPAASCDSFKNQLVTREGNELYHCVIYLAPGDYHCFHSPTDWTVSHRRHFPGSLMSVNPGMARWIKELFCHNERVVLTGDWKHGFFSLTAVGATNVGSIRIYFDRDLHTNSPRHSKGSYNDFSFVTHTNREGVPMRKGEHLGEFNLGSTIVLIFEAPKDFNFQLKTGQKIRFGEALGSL
In words: MST; SMAC fluorescently labelled (NanoTemper BLUE kit), 1 µM, incubated with purified PSD (78–625 nM) for 30 min at 37 °C; 10 mM Tris buffer, pH 7.4; Monolith NT.115, LED 20%, IR laser 20%. As to conditions: both partners purified.

As to ALLTSGTSDPRARVTYGTPSLWRL [1C11], the Kd (as a rule, the constant that tells how readily two partners part at equilibrium) in data set [1] came to 3 µM.

In the case of ALSTSSPIPSVPQSQAQPQTGSGAS [2F3], in data set [1], the Kd turned out to be 3 µM.

With DVDKLREQLS TSENALTGRILDLKT [2J14], the “effect of PSD preincubation on SMAC binding to the peptide spot” value (from here on “effect of PSD preincubation”) in data set [2] is reported as “prevented SMAC interaction”.

FQQLTCVLPI LDNLLKANVINKQEH [1E14]: the “effect of PSD preincubation” value in data set [2] is “prevented SMAC interaction”.

Take PNQSSRAFQGT DHSSDLAFDFLSQQ [2I8]: the “effect of PSD preincubation” value in data set [2] was “prevented SMAC interaction”.

Consider [dR][Dmt][Orn]F-NH2 [mtCPP‐1], for which, in data set [3] (different cell lines), the toxicity result is recorded as “no toxicity”. The induction of apoptosis result in data set [3] was “did not induce apoptosis”.

B1: Human recombinant SMAC (SMAC/Diablo, second mitochondria‐derived activator of caspase/direct inhibitor of apoptosis‐binding protein with low pI) (natural protein)
chain: AVPIAQKSEPHSLSSEALMRRAVSLVTDSTSTFLSQTTYALIEAITEYTKAVYTLTSLYRQYTSLLGKMNSEEEDEVWQVIIGARAEMTSKHQEYLKLETTWMTAVGLSEMAAEAAYQTGADQASITARNHIQLVKLQVEEVHQLSRKAETKLAEAQIEELRQKTQEEGEERAESEQEAYLRED
modifications: fluorescently labelled with the NanoTemper Protein labelling kit BLUE (in the MST with PSD only)
With B1, the Kd in data set [4] is 0.246 µM.
